The values that follow come from PMC9267955, “Antidiabetic, Antiglycation, and Antioxidant Activities of Ethanolic Seed Extract of Passiflora edulis and Piceatannol In Vitro” (Molecules, 2022).

The term viability denotes the share of living cells, or the viability signal relative to a control. Read a high viability as less harm to the cells. In general, IC50 refers to the concentration that inhibits the measured activity by half.

Where only a bound is given, the exact number is not on record here.

A short description of one series: MTS cell viability assay. The series is classed as cell-based. To be noted: human, MCF-10A cells, up to 100 µg/mL. As to the method:
BEAS-2B, MCF10-A, and AML-12, cells were purchased from the American Tissue Type Culture Collection (ATCC; CRL-9609, CRL-10317, and CRL-2254) and cultured with a specific medium. BEAS-2B cells were cultured with LHC-9 media at 37 °C in an incubator with 5% CO2. […] Cells were grown to around 70% confluence on the culture flask, and passages (<10) were employed for all experimental conditions. MTS Cell Titer 96™ aqueous cell proliferation assay was used to determine cell viability. […] For that, 1 × 10^4 cells were plated on a 96-well plate with a growth medium of 100 μL/well. […] Fifteen microliters of MTS reagent (with PMS) was then added to each well and incubated for 3 h in the dark. Absorbance was recorded at 490 nm using a microplate reader (Infinite® 200 PRO, TECAN, Männedorf, Switzerland). For each experiment, cells with DMSO media served as control, and cells with only culture medium and MTS reagent served as the blank.
A general note: Tetrazolium dyes change colour on reduction, which living cells bring about.

Another series has as its system db/db mice. Also on record: method as in PMID 25832644. As to conditions: PIC supplementation; cited from earlier work.
Series [1] can be described thus: MGO capture using derivatization with OPD (HPLC). To be noted: PESE 2 mg/mL, PIC 2 mM, AMG 2 mM; MGO 2 mM; 37 °C, 1 h. As to the method: MGO scavenging was tested using a described procedure, with slight modifications. The quantification of MGO was based on derivatization with OPD, leading to the formation of the product 2-methylquinoxyline (2-MQ). MGO and OPD were dissolved in phosphate buffer (50 mM, pH 7.4) to a concentration of 2 mM and 4 mM, respectively. […] The reaction system was composed of 125 μL of the MGO solution, 125 μL of phosphate buffer (negative control), or PESE incubated at 37 °C for 1 h. After 250 μL of the OPD solution was added, the tubes were kept for 30 min for the derivatization reaction between MGO and OPD to complete. Then, the chromatographic analysis was performed. All solutions were previously filtered (microfilter pore diameter 0.45 μm). […] The linear gradient for elution was: starting at 5% of solvent B, 0–3 min, 5 to 50% B; 3–16 min, isocratic in 50% B; 16–17 min, 50–90% B; 17–19 min, isocratic in 90% B and 19–19.5 min, 90–5% B. The derivatization product, 2-methylquinoxyline (2-MQ), was detected at 315 nm, with a retention time of 10 min. The percentage of trapping efficiency of MGO was calculated using the following equation: % trapping MGO = [100 − (peak area after adding sample/peak area without adding sample) × 100].

The next series deals with diabetic mice. Also on record: method as in doi:10.32604/biocell.2020.08955. As to conditions: cited from earlier work.
For series [2], the target named is T1, DPP-4 human recombinant enzyme (Homo sapiens, UniProt P27487).
T1 construct: purchased Sigma-Aldrich (Oakville, ON, Canada)
T1 sequence (P27487 whole entry): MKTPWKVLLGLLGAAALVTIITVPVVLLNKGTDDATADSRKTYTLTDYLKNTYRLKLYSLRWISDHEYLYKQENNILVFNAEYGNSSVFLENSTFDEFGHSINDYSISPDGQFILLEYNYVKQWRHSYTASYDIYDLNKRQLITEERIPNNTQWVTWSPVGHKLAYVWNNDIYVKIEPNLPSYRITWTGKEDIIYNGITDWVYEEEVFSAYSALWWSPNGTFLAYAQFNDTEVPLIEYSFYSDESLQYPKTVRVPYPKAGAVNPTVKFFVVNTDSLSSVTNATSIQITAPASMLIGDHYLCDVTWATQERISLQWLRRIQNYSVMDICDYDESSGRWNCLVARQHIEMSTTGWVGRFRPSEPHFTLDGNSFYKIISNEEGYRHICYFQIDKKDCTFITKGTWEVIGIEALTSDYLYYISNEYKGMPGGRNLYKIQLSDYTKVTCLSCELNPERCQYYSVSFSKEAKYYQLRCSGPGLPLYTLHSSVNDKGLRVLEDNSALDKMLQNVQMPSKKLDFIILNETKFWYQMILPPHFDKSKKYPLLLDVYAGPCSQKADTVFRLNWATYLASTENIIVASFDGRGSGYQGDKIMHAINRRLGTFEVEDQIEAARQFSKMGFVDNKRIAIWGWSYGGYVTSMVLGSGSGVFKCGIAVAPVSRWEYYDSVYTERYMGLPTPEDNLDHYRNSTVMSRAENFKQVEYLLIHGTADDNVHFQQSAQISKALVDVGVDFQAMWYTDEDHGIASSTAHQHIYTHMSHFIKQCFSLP
Put plainly: DPP-4 inhibition assay. The series is classed as biochemical. To be noted: mean ± SD, triplicates. As to the method: The DPP-4 inhibition assay was performed according to an established method. […] The reaction mixture was incubated for 30 min in the dark at 37 °C. Then, the fluorescent product was recorded at excitation/emission wavelengths of 350/450 nm using the microplate reader (Infinite® 200 PRO, TECAN, Männedorf, Switzerland). […] The percentage of the DPP-4 inhibition and IC50 was calculated as described in Section 3.3.1.

A short description of series [3]: Superoxide anion radical scavenging activity. How it is done:
The potential of the samples to scavenger superoxide anion radicals was determined, with minor modifications. […] Phosphate buffer (19 mM, pH 7.4) was used to dissolve NADH, NBT, and PMS. QCT was used as means of comparison. The experiment was conducted at 37 °C in a microplate reader (Infinite® 200 PRO, TECAN, Männedorf, Switzerland), and the absorbance was measured at 560 nm. The results were expressed as IC50 of extract solution in μg/mL.

Another series concerns BEAS-2B cells. Put plainly: Intracellular ROS level (DCFH-DA) after NNKOAc. The series is classed as cell-based, human. How it is done: The generation of intracellular ROS in BEAS-2B, AML-12, and MCF-10A cells after treatments was measured as described previously. Briefly, DCFH-DA dye was readily taken up by cells and is subsequently hydrolyzed to DCFH, which can be oxidized to a measurable fluorescent product dichlorofluorescein (DCF). […] Cells with DMSO media (0.5%) served as the vehicle control. After treatments, DCFH-DA was added to the cell culture plates at a final concentration of 5 μM followed by 40 min incubation at dark. The fluorescence […] was then measured at an excitation and emission wavelength of 485 nm and 535 nm, using a microplate reader (Infinite® 200 PRO, TECAN, Männedorf, Switzerland).
BEAS-2B, MCF10-A, and AML-12, cells were purchased from the American Tissue Type Culture Collection (ATCC; CRL-9609, CRL-10317, and CRL-2254) and cultured with a specific medium. BEAS-2B cells were cultured with LHC-9 media at 37 °C in an incubator with 5% CO2. Culture flasks (polystyrene T75) were pre-coated with a mixture of 0.01 mg/mL fibronectin, 0.03 mg/mL bovine collagen type I, and 0.01 mg/mL bovine serum albumin were dissolved in LHC-9 medium overnight. […]

Series [4] is described as follows: DPPH radical scavenging assay. How it is done:
After incubation in the dark for 30 min, the absorbance was read at 516 nm, using a UV–Vis spectrophotometer (Agilent Technologies, Santa Clara, CA, USA). Results were expressed as the half-maximal inhibitory concentration (IC50) in μg/mL.
A general note: The DPPH test is a chemical assay of radical scavenging.

As for `Oc1cc(O)cc(/C=C/c2ccc(O)c(O)c2)c1` [PIC, 3,3′,4′,5-trans-tetrahydroxystilbene], in “MTS cell viability assay”, the viability at 24 h was more than 80%. Moreover, the “Fasting blood glucose, db/db mice” value in the series with db/db mice was “reduced fasting blood glucose”. For the same compound, the MGO trapping in series [1] was 65.1%. Also, the “Blood glucose, diabetic mice” value in the series with diabetic mice is recorded as “lowered the blood glucose”. Further, the “Glucose tolerance, diabetic mice” value in the series on diabetic mice was “improved glucose tolerance”. For the same compound, the IC50 in series [2] was 4660 µM; in series [3] (data in parenthesis are in μM, read-out: O2•− IC50 (in parenthesis) (converted)) it was 30.1 µM; in series [4] (data in parenthesis are in μM), 25.8 µM. In series [3], the “O2•− IC50” value is 7.3 ± 0.02 µg/mL. Further, the “Protection from oxidative stress (ROS) caused by the carcinogen, BEAS-2B” value with BEAS-2B cells (50 µg/mL, 3 h pretreatment, NNKOAc 100 µM) is on record as “able to protect”. Also, in the series on BEAS-2B cells (NNKOAc at 100 µM, abstract, cell line and concentration not specified), the “Protection of cultured human cells from oxidative stress caused by NNKOAc” value is “capable of protecting”. In addition, the “DPPH• IC50” value in series [4] (30 min) stood at 6.3 ± 1.3 µg/mL.
